From patent US10590123B2, “Pesticidally active amide heterocyclic derivatives with sulphur containing substituents” (SYNGENTA PARTICIPATIONS AG, priority 2014, dated 2020)

How the values were obtained:
Type in all cases: in vivo
[1] = test system: Spodoptera littoralis (Egyptian Cotton Leaf Worm); experiment: Example B1: Activity against Spodoptera littoralis, sprayed cotton leaf discs; settings: foliar, 72 h, application rate 200 ppm, L1 larvae, 3 days after infestation, read-out: control in at least one of the three categories (mortality, anti-feedancy or growth inhibition)
Method: Example B1: Activity Against Spodoptera littoralis (Egyptian Cotton Leaf Worm)
Cotton leaf discs were placed on agar in 24-well microtiter plates and sprayed with aqueous test solutions prepared from 10′000 ppm DMSO stock solutions. After drying the leaf discs were infested with five L1 larvae. The samples were assessed for mortality, anti-feedant effect, and growth inhibition in comparison to untreated samples 3 days after infestation. Control of Spodoptera littoralis by a test sample is when at least one of mortality, anti-feedant effect, and growth inhibition is higher than the untreated sample.

[2] = test system: Plutella xylostella (Diamond Back Moth); experiment: Example B3: Activity against Plutella xylostella, artificial diet; settings: 120 h, application rate 200 ppm, L2 larvae, 5 days after infestation, read-out: effect in at least one of the two categories (mortality or growth inhibition)
Method: Example B3: Activity Against Plutella xylostella (Diamond Back Moth)
24-well microtiter plates with artificial diet were treated with aqueous test solutions prepared from 10′000 ppm DMSO stock solutions by pipetting. After drying, the plates were infested with L2 larvae (10 to 15 per well). The samples were assessed for mortality and growth inhibition in comparison to untreated samples 5 days after infestation.

[3] = test system: Diabrotica Balteata (Corn Root Worm); experiment: Example B4: Activity against Diabrotica balteata, sprayed maize sprouts; settings: 96 h, application rate 200 ppm, L2 larvae, 4 days after infestation, read-out: effect in at least one of the two categories (mortality or growth inhibition)
Method: Example B4: Activity Against Diabrotica Balteata (Corn Root Worm)
Maize sprouts, placed on an agar layer in 24-well microtiter plates were treated with aqueous test solutions prepared from 10′000 ppm DMSO stock solutions by spraying. After drying, the plates were infested with L2 larvae (6 to 10 per well). The samples were assessed for mortality and growth inhibition in comparison to untreated samples 4 days after infestation.

[4] = test system: Bemisia tabaci (Cotton White Fly); experiment: Example B6: Activity against Bemisia tabaci, sprayed cotton leaf discs; settings: foliar, 144 h, application rate 200 ppm, adult white flies, 6 days after incubation
Method: Example B6: Activity Against Bemisia tabaci (Cotton White Fly)
Cotton leaf discs were placed on agar in 24-well microtiter plates and sprayed with aqueous test solutions prepared from 10′000 ppm DMSO stock solutions. After drying the leaf discs were infested with adult white flies. The samples were checked for mortality 6 days after incubation.

[5] = test system: Euschistus heros (Neotropical Brown Stink Bug); experiment: Example B7: Activity against Euschistus heros, sprayed soybean leaf; settings: 120 h, application rate 200 ppm, N-2 nymphs, 5 days after infestation
Method: Example B7: Activity Against Euschistus heros (Neotropical Brown Stink Bug)
Soybean leaf on agar in 24-well microtiter plates were sprayed with aqueous test solutions prepared from 10′000 ppm DMSO stock solutions. After drying the leaf were infested with N-2 nymphs. The samples were assessed for mortality 5 days after infestation.

[6] = test system: Spodoptera littoralis (Egyptian Cotton Leaf Worm); experiment: Example B2: Activity against Spodoptera littoralis, systemic via lettuce roots in agar; settings: 144 h, application rate 12.5 ppm, 6 days after infestation, read-out: control in at least one of the three categories (mortality, anti-feedancy or growth inhibition)
Text: Example B2: Activity Against Spodoptera littoralis (Egyptian Cotton Leaf Worm)
Test compounds were applied by pipette from 10′000 ppm DMSO stock solutions into 24-well plates and mixed with agar. Lettuce seeds were placed on the agar and the multi well plate was closed by another plate which contains also agar. After 7 days the roots have absorbed the compound and the lettuce has grown into the lid plate. The lettuce leafs were now cut off into the lid plate. Spodoptera eggs were pipetted through a plastic stencil on a humid gel blotting paper and the plate closed with it.
The samples were assessed for mortality, anti-feedant effect and growth inhibition in comparison to untreated samples 6 days after infestation.

[7] = test system: Myzus persicae (Green Peach Aphid); experiment: Example B8: Activity against Myzus persicae, sprayed sunflower leaf discs; settings: foliar, 144 h, application rate 200 ppm, aphid population of mixed ages, 6 days after infestation
Method: Example B8: Activity Against Myzus persicae (Green Peach Aphid)
Sunflower leaf discs were placed on agar in a 24-well microtiter plate and sprayed with aqueous test solutions prepared from 10′000 ppm DMSO stock solutions. After drying, the leaf discs were infested with an aphid population of mixed ages. The samples were assessed for mortality 6 days after infestation.

CCS(=O)(=O)c1cc(-c2ccc(C(F)(F)F)cc2)cnc1C(=O)N(C)c1nnc(C(F)(F)F)s1 [Compound P4]
≥ 80%: percent control (mortality, anti-feedant effect or growth inhibition) at 200 ppm [1] | percent effect (mortality or growth inhibition) at 200 ppm [2] | percent effect (mortality or growth inhibition) at 200 ppm [3] | mortality at 200 ppm [4] | mortality at 200 ppm [5]

CCSc1cc(-n2ccc(C(F)(F)F)n2)cnc1C(=O)Nc1nnc(C(F)(F)C(F)(F)F)s1 [Compound P6]
≥ 80%: percent control (mortality, anti-feedant effect or growth inhibition) at 12.5 ppm [6]

CCS(=O)(=O)c1cc(C2(C#N)CC2)cnc1C(=O)N(C)c1nnc(C(F)(F)F)s1 [Compound P18]
≥ 80%: percent control (mortality, anti-feedant effect or growth inhibition) at 200 ppm [1] | percent effect (mortality or growth inhibition) at 200 ppm [2] | percent effect (mortality or growth inhibition) at 200 ppm [3] | mortality at 200 ppm [7]

CCS(=O)(=O)c1cc(-c2ccc(OC(F)(F)F)cc2)cnc1C(=O)N(C)c1nnc(C(F)(F)F)s1 [Compound P22]
≥ 80%: percent control (mortality, anti-feedant effect or growth inhibition) at 200 ppm [1] | percent effect (mortality or growth inhibition) at 200 ppm [2] | percent effect (mortality or growth inhibition) at 200 ppm [3] | mortality at 200 ppm [5] | mortality at 200 ppm [7]

CCS(=O)(=O)c1cc(-c2cccc(F)c2)cnc1C(=O)N(C)c1nnc(C(F)(F)F)s1 [Compound P26]
≥ 80%: percent control (mortality, anti-feedant effect or growth inhibition) at 200 ppm [1] | percent control (mortality, anti-feedant effect or growth inhibition) at 12.5 ppm [6] | percent effect (mortality or growth inhibition) at 200 ppm [2] | percent effect (mortality or growth inhibition) at 200 ppm [3] | mortality at 200 ppm [5] | mortality at 200 ppm [7]

CCS(=O)(=O)c1cc(-c2cccc3c2OC(F)(F)O3)cnc1C(=O)N(C)c1nnc(C(F)(F)F)s1 [Compound P29]
≥ 80%: percent control (mortality, anti-feedant effect or growth inhibition) at 200 ppm [1] | percent control (mortality, anti-feedant effect or growth inhibition) at 12.5 ppm [6] | percent effect (mortality or growth inhibition) at 200 ppm [2] | percent effect (mortality or growth inhibition) at 200 ppm [3] | mortality at 200 ppm [5] | mortality at 200 ppm [7]

CCS(=O)(=O)c1cc(-c2cccc(OC(F)(F)F)c2)cnc1C(=O)N(C)c1nnc(C(F)(F)F)s1 [Compound P31]
≥ 80%: percent control (mortality, anti-feedant effect or growth inhibition) at 200 ppm [1] | percent control (mortality, anti-feedant effect or growth inhibition) at 12.5 ppm [6] | percent effect (mortality or growth inhibition) at 200 ppm [2] | percent effect (mortality or growth inhibition) at 200 ppm [3] | mortality at 200 ppm [5]

CCS(=O)(=O)c1cc(-c2cccc(C(F)(F)F)c2)cnc1C(=O)N(C)c1nnc(C(F)(F)F)s1 [Compound P37]
≥ 80%: percent control (mortality, anti-feedant effect or growth inhibition) at 200 ppm [1] | percent effect (mortality or growth inhibition) at 200 ppm [2] | percent effect (mortality or growth inhibition) at 200 ppm [3] | mortality at 200 ppm [4] | mortality at 200 ppm [5]

CCS(=O)(=O)c1cc(-c2cncs2)cnc1C(=O)N(C)c1nnc(C(F)(F)F)s1 [Compound P40]
≥ 80%: percent control (mortality, anti-feedant effect or growth inhibition) at 200 ppm [1] | percent effect (mortality or growth inhibition) at 200 ppm [2] | percent effect (mortality or growth inhibition) at 200 ppm [3] | mortality at 200 ppm [5] | mortality at 200 ppm [7]

CCS(=O)(=O)c1cc(-c2cc(Cl)ccn2)cnc1C(=O)N(C)c1nnc(C(F)(F)F)s1 [Compound P42]
≥ 80%: percent control (mortality, anti-feedant effect or growth inhibition) at 200 ppm [1] | percent control (mortality, anti-feedant effect or growth inhibition) at 12.5 ppm [6] | percent effect (mortality or growth inhibition) at 200 ppm [2] | percent effect (mortality or growth inhibition) at 200 ppm [3] | mortality at 200 ppm [5] | mortality at 200 ppm [7]

CCS(=O)(=O)c1cc(-c2ncccn2)cnc1C(=O)N(C)c1nnc(C(F)(F)F)s1 [Compound P43]
≥ 80%: percent control (mortality, anti-feedant effect or growth inhibition) at 200 ppm [1] | percent control (mortality, anti-feedant effect or growth inhibition) at 12.5 ppm [6] | percent effect (mortality or growth inhibition) at 200 ppm [2] | percent effect (mortality or growth inhibition) at 200 ppm [3] | mortality at 200 ppm [5] | mortality at 200 ppm [7]

CCS(=O)(=O)c1cc(-c2cccc(C(F)(F)F)n2)cnc1C(=O)N(C)c1nnc(C(F)(F)F)s1 [Compound P45]
≥ 80%: percent control (mortality, anti-feedant effect or growth inhibition) at 200 ppm [1] | percent effect (mortality or growth inhibition) at 200 ppm [2] | percent effect (mortality or growth inhibition) at 200 ppm [3] | mortality at 200 ppm [7]

CCS(=O)(=O)c1cc(-c2ncc(C(F)(F)F)cc2F)cnc1C(=O)N(C)c1nnc(C(F)(F)F)s1 [Compound P48]
≥ 80%: percent control (mortality, anti-feedant effect or growth inhibition) at 200 ppm [1] | percent control (mortality, anti-feedant effect or growth inhibition) at 12.5 ppm [6] | percent effect (mortality or growth inhibition) at 200 ppm [2] | percent effect (mortality or growth inhibition) at 200 ppm [3] | mortality at 200 ppm [5]

CCS(=O)(=O)c1cc(-c2ccccn2)cnc1C(=O)N(C)c1nnc(C(F)(F)F)s1 [Compound P54]
≥ 80%: percent control (mortality, anti-feedant effect or growth inhibition) at 200 ppm [1] | percent control (mortality, anti-feedant effect or growth inhibition) at 12.5 ppm [6] | percent effect (mortality or growth inhibition) at 200 ppm [2] | percent effect (mortality or growth inhibition) at 200 ppm [3] | mortality at 200 ppm [5] | mortality at 200 ppm [7]

CCS(=O)(=O)c1cc(-c2ccnc(Cl)c2)cnc1C(=O)N(C)c1nnc(C(F)(F)F)s1 [Compound P57]
≥ 80%: percent control (mortality, anti-feedant effect or growth inhibition) at 200 ppm [1] | percent effect (mortality or growth inhibition) at 200 ppm [2] | percent effect (mortality or growth inhibition) at 200 ppm [3] | mortality at 200 ppm [5] | mortality at 200 ppm [7]

CCS(=O)(=O)c1cc(-c2ccnc(C(F)(F)F)n2)cnc1C(=O)N(C)c1nnc(C(F)(F)F)s1 [Compound P60]
≥ 80%: percent control (mortality, anti-feedant effect or growth inhibition) at 200 ppm [1] | percent effect (mortality or growth inhibition) at 200 ppm [2] | percent effect (mortality or growth inhibition) at 200 ppm [3] | mortality at 200 ppm [5] | mortality at 200 ppm [7]

CCS(=O)(=O)c1cc(-c2ncc(Cl)cn2)cnc1C(=O)N(C)c1nnc(C(F)(F)F)s1 [Compound P62]
≥ 80%: percent control (mortality, anti-feedant effect or growth inhibition) at 200 ppm [1] | percent effect (mortality or growth inhibition) at 200 ppm [2] | percent effect (mortality or growth inhibition) at 200 ppm [3] | mortality at 200 ppm [5] | mortality at 200 ppm [7]

CCS(=O)(=O)c1cc(-c2ccc(C#N)cn2)cnc1C(=O)N(C)c1nnc(C(F)(F)F)s1 [Compound P64, 5-(5-cyano-2-pyridyl)-3-ethylsulfonyl-N-methyl-N-[5-(trifluoromethyl)-1,3,4-thiadiazol-2-yl]pyridine-2-carboxamide]
≥ 80%: percent control (mortality, anti-feedant effect or growth inhibition) at 200 ppm [1] | percent effect (mortality or growth inhibition) at 200 ppm [2] | percent effect (mortality or growth inhibition) at 200 ppm [3] | mortality at 200 ppm [5] | mortality at 200 ppm [7]
